Measurements taken from PubChem BioAssay AID2060908 (Molecular Pharmacology Branch, DTP, NCI, 2025).
“And” between values parts separate entries of the source, which are not always exact repeats. Equal entries are not always repeated.

Tested on: 186277-243-T-J2-PDC complex spheroids, viability
Assay: Anticancer human tumor 186277-243-T-J2-PDC patient-derived colon adenocarcinoma cell line growth inhibition [RAS]
Conditions: for viability, T/C: stronger effect = lower value; active means viability on the fitted dose curve at most 10% of control; inactive means the rest
Procedure, shortened: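 Agents were tested in combination matrices in half-log decrements from a top concentration at or near clinical Cmax (10 microM if undetermined). Targets were multi-cell spheroids of tumour lines plus HUVEC and MSC stromal cells.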

[1] = curve of first compound, second compound 0.0316 µM
[2] = curve of first compound, second compound 0.1 µM
[3] = curve of first compound, second compound 0.316 µM
[4] = curve of first compound, second compound 1 µM
[5] = second compound 0.0316 µM, first compound 0.0316 µM
[6] = second compound 0.0316 µM, first compound 0.1 µM
[7] = second compound 0.1 µM, first compound 0.0316 µM
[8] = second compound 0.1 µM, first compound 0.1 µM
[9] = second compound 0.316 µM, first compound 0.0316 µM
[10] = second compound 0.316 µM, first compound 0.1 µM
[11] = second compound 1 µM, first compound 0.0316 µM
[12] = second compound 1 µM, first compound 0.1 µM
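Further: spheroids exposed to compounds for 7 days before viability read.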

CC(C)n1nc(-c2ccc3oc(N)nc3c2)c2c(N)ncnc21 + CCn1c(-c2cc(N3CCN(C)CC3)cnc2C(C)OC)c2c3cc(ccc31)-c1csc(n1)CC(NC(=O)C1CC1C)C(=O)N1CCCC(N1)C(=O)OCC(C)(C)C2
< 0.316 nM: IC50 (curve of first compound, second compound 0.00949 µM) | IC50 (curve of first compound, second compound 0.03 µM) | IC50 (curve of first compound, second compound 0.0949 µM) | IC50 (curve of first compound, second compound 0.3 µM)
active: viability, T/C (second compound 0.00949 µM, first compound 0.1 µM) 5.22% | viability, T/C (second compound 0.03 µM, first compound 0.00316 µM) 9.71% | viability, T/C (second compound 0.03 µM, first compound 0.01 µM) 6.52% | viability, T/C (second compound 0.03 µM, first compound 0.0316 µM) 4.01% | viability, T/C (second compound 0.03 µM, first compound 0.1 µM) 2.6% | viability, T/C (second compound 0.0949 µM, first compound 0.000316 µM) 7.46% | viability, T/C (second compound 0.0949 µM, first compound 0.001 µM) 6.37% | viability, T/C (second compound 0.0949 µM, first compound 0.00316 µM) 5.35% | viability, T/C (second compound 0.0949 µM, first compound 0.01 µM) 3.33% | viability, T/C (second compound 0.0949 µM, first compound 0.0316 µM) 2.32% | viability, T/C (second compound 0.0949 µM, first compound 0.1 µM) 1.41% | viability, T/C (second compound 0.3 µM, first compound 0.000316 µM) 5.75% | viability, T/C (second compound 0.3 µM, first compound 0.001 µM) 5.69% | viability, T/C (second compound 0.3 µM, first compound 0.00316 µM) 4.23% | viability, T/C (second compound 0.3 µM, first compound 0.01 µM) 2.81% | viability, T/C (second compound 0.3 µM, first compound 0.0316 µM) 2.02% | viability, T/C (second compound 0.3 µM, first compound 0.1 µM) 1.43%
27.5 nM: IC50 (curve of first compound, second compound 0.003 µM)
46.6 nM: IC50 (curve of first compound, second compound 0.000949 µM)
inactive: viability, T/C (second compound 0.000949 µM, first compound 0.000316 µM) 104% | viability, T/C (second compound 0.000949 µM, first compound 0.001 µM) 109% | viability, T/C (second compound 0.000949 µM, first compound 0.00316 µM) 87.9% | viability, T/C (second compound 0.000949 µM, first compound 0.01 µM) 69.8% | viability, T/C (second compound 0.000949 µM, first compound 0.0316 µM) 62.2% | viability, T/C (second compound 0.000949 µM, first compound 0.1 µM) 34.8% | viability, T/C (second compound 0.003 µM, first compound 0.000316 µM) 106% | viability, T/C (second compound 0.003 µM, first compound 0.001 µM) 104% | viability, T/C (second compound 0.003 µM, first compound 0.00316 µM) 88.3% | viability, T/C (second compound 0.003 µM, first compound 0.01 µM) 72.9% | viability, T/C (second compound 0.003 µM, first compound 0.0316 µM) 46.7% | viability, T/C (second compound 0.003 µM, first compound 0.1 µM) 20.1% | viability, T/C (second compound 0.00949 µM, first compound 0.000316 µM) 49.4% | viability, T/C (second compound 0.00949 µM, first compound 0.001 µM) 47.4% | viability, T/C (second compound 0.00949 µM, first compound 0.00316 µM) 37.7% | viability, T/C (second compound 0.00949 µM, first compound 0.01 µM) 30.8% | viability, T/C (second compound 0.00949 µM, first compound 0.0316 µM) 12.7% | viability, T/C (second compound 0.03 µM, first compound 0.000316 µM) 14.8% | viability, T/C (second compound 0.03 µM, first compound 0.001 µM) 12.5%

CC(C)n1nc(-c2ccc3oc(N)nc3c2)c2c(N)ncnc21 + C=CC(=O)N1CCN(c2nc(OCC3CCCN3C)nc3c(F)c(-c4nc(N)cc(C)c4C(F)(F)F)c(Cl)cc23)C(C)C1
80.3 nM: IC50 [4]
97.6 nM: IC50 [2]
inactive: viability, T/C (second compound 0.00316 µM, first compound 0.000316 µM) 109% | viability, T/C (second compound 0.00316 µM, first compound 0.001 µM) 92.1% | viability, T/C (second compound 0.00316 µM, first compound 0.00316 µM) 91.1% | viability, T/C (second compound 0.00316 µM, first compound 0.01 µM) 80.4% | viability, T/C (second compound 0.00316 µM, first compound 0.0316 µM) 90.1% | viability, T/C (second compound 0.00316 µM, first compound 0.1 µM) 43.5% | viability, T/C (second compound 0.01 µM, first compound 0.000316 µM) 97.6% | viability, T/C (second compound 0.01 µM, first compound 0.001 µM) 96.7% | viability, T/C (second compound 0.01 µM, first compound 0.00316 µM) 82.5% | viability, T/C (second compound 0.01 µM, first compound 0.01 µM) 106% | viability, T/C (second compound 0.01 µM, first compound 0.0316 µM) 77.7% | viability, T/C (second compound 0.01 µM, first compound 0.1 µM) 51.4% | viability, T/C (second compound 0.0316 µM, first compound 0.000316 µM) 95.1% | viability, T/C (second compound 0.0316 µM, first compound 0.001 µM) 104% | viability, T/C (second compound 0.0316 µM, first compound 0.00316 µM) 80.3% | viability, T/C (second compound 0.0316 µM, first compound 0.01 µM) 123% | viability, T/C [5] 89.8% | viability, T/C [6] 56.8% | viability, T/C (second compound 0.1 µM, first compound 0.000316 µM) 94.5% | viability, T/C (second compound 0.1 µM, first compound 0.001 µM) 106% | viability, T/C (second compound 0.1 µM, first compound 0.00316 µM) 108% | viability, T/C (second compound 0.1 µM, first compound 0.01 µM) 91% | viability, T/C [7] 90.8% | viability, T/C [8] 48.5% | viability, T/C (second compound 0.316 µM, first compound 0.000316 µM) 92.5% | viability, T/C (second compound 0.316 µM, first compound 0.001 µM) 106% | viability, T/C (second compound 0.316 µM, first compound 0.00316 µM) 94% | viability, T/C (second compound 0.316 µM, first compound 0.01 µM) 93.9% | viability, T/C [9] 97.4% | viability, T/C [10] 48% | viability, T/C (second compound 1 µM, first compound 0.000316 µM) 109% | viability, T/C (second compound 1 µM, first compound 0.001 µM) 101% | viability, T/C (second compound 1 µM, first compound 0.00316 µM) 84.6% | viability, T/C (second compound 1 µM, first compound 0.01 µM) 113% | viability, T/C [11] 82.5% | viability, T/C [12] 42.5%
> 100 nM: IC50 (curve of first compound, second compound 0.01 µM) | IC50 [1]
85.1 nM: IC50 (curve of first compound, second compound 0.00316 µM)
95.1 nM: IC50 [3]

C[C@@H](NC(=O)c1ncnc(N)c1Cl)c1ncc(C(=O)Nc2cc(C(F)(F)F)c(Cl)cn2)s1 + C#Cc1c(F)ccc2cc(O)cc(-c3ncc4c(N5CC6CCC(C5)N6)nc(OCC56CCCN5CC(F)C6)nc4c3F)c12
< 31.6 nM: IC50 [3] | IC50 [4] | IC50 (curve of first compound, second compound 3.16 µM) | IC50 (curve of first compound, second compound 10 µM)
inactive: viability, T/C [5] 104% | viability, T/C [6] 98.5% | viability, T/C (second compound 0.0316 µM, first compound 0.316 µM) 90.6% | viability, T/C (second compound 0.0316 µM, first compound 1 µM) 91.7% | viability, T/C (second compound 0.0316 µM, first compound 3.16 µM) 76.1% | viability, T/C (second compound 0.0316 µM, first compound 10 µM) 48.8% | viability, T/C [7] 77.2% | viability, T/C [8] 69.5% | viability, T/C (second compound 0.1 µM, first compound 0.316 µM) 62.1% | viability, T/C (second compound 0.1 µM, first compound 1 µM) 61.3% | viability, T/C (second compound 0.1 µM, first compound 3.16 µM) 60.8% | viability, T/C (second compound 0.1 µM, first compound 10 µM) 26.7% | viability, T/C [9] 36.3% | viability, T/C [10] 49.8% | viability, T/C (second compound 0.316 µM, first compound 0.316 µM) 38.5% | viability, T/C (second compound 0.316 µM, first compound 1 µM) 36% | viability, T/C (second compound 0.316 µM, first compound 3.16 µM) 23.7% | viability, T/C (second compound 0.316 µM, first compound 10 µM) 14.4% | viability, T/C [11] 20.9% | viability, T/C [12] 23.9% | viability, T/C (second compound 1 µM, first compound 0.316 µM) 22.7% | viability, T/C (second compound 1 µM, first compound 1 µM) 22.3% | viability, T/C (second compound 1 µM, first compound 3.16 µM) 18.8% | viability, T/C (second compound 1 µM, first compound 10 µM) 11.1% | viability, T/C (second compound 3.16 µM, first compound 0.0316 µM) 15.4% | viability, T/C (second compound 3.16 µM, first compound 0.1 µM) 17.6% | viability, T/C (second compound 3.16 µM, first compound 0.316 µM) 15.1% | viability, T/C (second compound 3.16 µM, first compound 1 µM) 15.4% | viability, T/C (second compound 3.16 µM, first compound 3.16 µM) 10.9% | viability, T/C (second compound 3.16 µM, first compound 10 µM) 8.51% | viability, T/C (second compound 10 µM, first compound 0.0316 µM) 9.89% | viability, T/C (second compound 10 µM, first compound 0.1 µM) 10.8% | viability, T/C (second compound 10 µM, first compound 0.316 µM) 14% | viability, T/C (second compound 10 µM, first compound 1 µM) 12.8% | viability, T/C (second compound 10 µM, first compound 3.16 µM) 8% | viability, T/C (second compound 10 µM, first compound 10 µM) 8.5%
9760 nM: IC50 [1]
4170 nM: IC50 [2]

Cc1nc(N2CCC3(CC2)COC(C)C3N)c(CO)nc1Sc1ccnc(N)c1Cl (stereo unspecified)
inactive: viability, T/C (compound 0.0316 µM) 101% [middle of 4 runs] | viability, T/C (compound 0.316 µM) 107% [middle of 4 runs] | viability, T/C (compound 1 µM) 110% (2×) and 105% and 119% | viability, T/C (compound 3.16 µM) 119% (2×) and 105% and 91.9%
> 10000 nM: IC50 (curve of compound)
